The source of these data is article PMC9863607, “Combined Use of Antimicrobial Peptides with Antiseptics against Multidrug-Resistant Bacteria: Pros and Cons” (Pharmaceutics, 2023).

In one test the test system is A. baumannii 7226/16. Description: Crystal violet assay of biofilm formation. The settings on record: median of 3 independent experiments; for MECBF partially inhibiting bacterial biofilms: minimal concentration with significant decrease vs intact control (Mann–Whitney, p < 0.05), 24 h, 37 °C, MHB; for Minimal FECI, AMP + CAPB, biofilm formation: combination with cocamidopropyl betaine; for Minimal FECI, AMP + DXD, biofilm formation: combination with dioxydin; for Minimal FECI, AMP + ETA, biofilm formation: combination with etidronic acid; for Minimal FECI, AMP + PTS, biofilm formation: combination with prontosan. In kind it is cell-based, Acinetobacter baumannii. How it is done:
The impact of the tested antimicrobials and their combinations on the formation of biofilms was quantitated as per the crystal violet assay protocol published by Merritt et al.. Testing was performed in 96-well immunological plates with U-shaped bottoms. Overnight cultures of tested bacteria in MHB were diluted by a factor of 50, mixed 1:1 with 50 μL of active compounds or combinations in the same growth medium adjusted to double the desired final concentration, and left to form biofilms for 24 h at 37 °C. Experimental samples were quadruplicated, and control without antimicrobials was octuplicated.
Then, the liquid content of the test plates was discarded, and the plates were gently washed in still water from residual traces of unattached planktonic bacteria. Each well was supplied with 125 μL 0.1% aqueous solution of crystal violet dye for 10 min at room temperature to stain biofilm components left attached to the surface. After staining, the plates were washed with clear water once more to remove excessive dye and left to air-dry. To quantify the amount of the bound dye corresponding to the thickness of the formed biofilm, it was redissolved in 30% acetic acid, 200 μL of which was introduced into each well. After 15 min at room temperature, the content of the wells was mixed by repetitive pipetting to ensure complete dye extraction, and 125 μL of each sample was transferred well-by-well into 96-well clear flat-bottom plates for spectrophotometric examination. OD was measured at 580 nm. Final results were calculated as medians based on three independent experiments.
The minimal concentrations of AMPs and antiseptics causing a statistically significant inhibitory effect on biofilm formation (i.e., a statistically significant decrease compared with the control biofilm formed by the intact bacteria; Mann–Whitney U-test, p < 0.05) are shown in Table 3 and are later referenced as MECBF (for minimal effective concentration regarding biofilm formation). The exact value of such a minimal effect is admittedly small, within the range of a 10–20% decrease in the density of the emerging biofilm. Thus, the practical usefulness of such an effect, even if strengthened in combinations, is quite questionable; however, from the academic point of view, even slight changes can provide us with information on the mode of interaction between AMPs and antiseptics and allow us to make certain assumptions about the nature of such interactions.
Analyzing the combined action of AMPs and antiseptics (AS) in sub-microbicidal concentrations toward biofilms, we adopted the same approach based on the calculation of fractional indices as the one we used while testing antimicrobial activity on planktonic bacteria. For combinations, the series of concentrations from [MECBF(AMP) + MECBF(AS)], [½MECBF(AMP) + ½MECBF(AS)] and down to [1/32 × MECBF(AMP) + 1/32 × MECBF(AS)] was analyzed. […] The fractional indices, denoted here as fractional effective concentration indices (FECIs), were calculated as follows: FECI = [AMP]/MECBF(AMP) + [AS]/MECBF(AS), where [AMP] and [AS] are the concentration of AMP and antiseptic in a combination that has a statistically significant inhibitory effect on the formation of biofilms if compared with the intact control (Mann–Whitney U-test, p < 0.05). The minimal FECI > 4 was interpreted as antagonism, FECI ≤ 0.5 as synergy, 0.5 < FECI ≤ 1 as additivity, and 1 < FECI ≤ 4 as independent action.

For test [1], the system named is E. coli ML-35p. As to the kind of experiment: Broth microdilution assay (MIC, planktonic bacteria). In kind it is cell-based, Escherichia coli. The note with it: antiseptics and surfactants, MHB, overnight 37 °C, median of 3–4 independent experiments, prontosan as polyhexanide. How it is done:
In this regard the test plates were preincubated for 1 h at 37 °C with 0.1% bovine serum albumin (BSA) in distilled water before use. Bacteria were grown overnight at 37 °C with shaking in 2.1% Müller–Hinton broth (MHB), and then a small aliquot was transferred into the fresh portion of the same medium for another 2–3 h on the day of the experiment to provide us with the log phase bacterial suspension. Concentration of bacterial cells in suspension was evaluated based on absorbance at 620 nm and diluted down to 1 × 10^6 CFU/mL with MHB. Equal volumes of the prepared bacterial suspension in MHB and two-fold serial dilutions of the antimicrobials in 10 mM sodium phosphate (Na-P) buffer (pH 7.4) with 0.1% BSA were mixed and incubated overnight at 37 °C. The lowest concentration where no bacterial growth was observed the next day under visual examination was considered the minimal inhibitory concentration. The test was repeated at least three times, and the final MIC value was established as a median result. Each experiment was conducted in triplicates. Terasaki microplates (10 µL end volume, V-shaped bottom; Sarstedt, Nümbrecht, Germany) were used.
A general note: In broth dilution the organism is exposed to a series of concentrations in liquid medium.

Test [2] relates to E. coli ML-35p. As to the kind of experiment: Fluorometric resazurin assay of bacterial metabolic activity. It counts as cell-based, Escherichia coli. The settings on record: ¼ MIC AMP + ¼ MIC poviargolum; became comparable to ½ MIC of the peptide. How it is done:
The decline in metabolic activity of bacterial cells faced against test substances or their combinations was tracked using resazurin dye, also known as alamarBlue. […] Thus, resazurin-to-resorufin conversion was primarily associated with energy metabolism impairment.
The experimental procedure was basically the same as for permeability testing except for the substitution of the markers by 120 μM resazurin and the addition of 0.1% MHB to provide bacteria with a metabolic substrate. An additional control without both antimicrobials and bacterial cells was included to imitate the zero metabolic activity level. Though resazurin-to-resorufin transformation can be observed via either spectrometry or fluorimetry, the latter was preferred as a more sensitive method. Experiments were conducted in 96-well white opaque plates. Temperature and shaking parameters were left unchanged. Fluorescence intensity was measured at 590 nm with excitation at 560 nm. Data were collected every 3 min for 4–6 h using a Gemini EM plate spectrofluorimeter (Molecular Devices, San Jose, CA, USA).

Where [3] appears, read: sub-microbicidal concentrations.

Converted amounts (≈) assume the structure as drawn. Where two headings read alike, the source gives them in different places. Peptide text beside a SMILES is read from it.

In the case of `CC(O)(P(=O)(O)O)P(=O)(O)O` [Etidronic acid], the “MECBF partially inhibiting bacterial biofilms” value with A. baumannii 7226/16 is on record as 1/128. Besides, in the test with E. coli ML-35p [1] (Escherichia coli, ML35P, read-out: MIC), the MIC is 50 mg/mL (≈ 243 mM).

With `[O-][n+]1c(CO)c(CO)[n+]([O-])c2ccccc21` [Dioxydin], in the test on A. baumannii 7226/16, the “MECBF partially inhibiting bacterial biofilms” value was 1/16.

With Cocamidopropyl betaine, the “MECBF partially inhibiting bacterial biofilms” value in the test on A. baumannii 7226/16 is on record as 1/32. Moreover, the minimum inhibitory concentration (MIC) against E. coli ML-35p [1] is on record as >50,000 µg/mL.

Regarding `CC(C)C[C@H](NC(=O)[C@H](CCCNC(=N)N)NC(=O)CNC(=O)CNC(=O)[C@@H](N)CCCNC(=N)N)C(=O)N[C@H]1CSSC[C@@H](C(=O)N[C@H](C(=O)NCC(=O)N[C@@H](CCCNC(=N)N)C(N)=O)C(C)C)NC(=O)[C@H](C(C)C)NC(=O)[C@@H]2CSSC[C@H](NC(=O)[C@H](Cc3ccc(O)cc3)NC1=O)C(=O)N[C@@H](CCCNC(=N)N)C(=O)N[C@@H](CCCNC(=N)N)C(=O)N[C@@H](CCCNC(=N)N)C(=O)N[C@@H](Cc1ccccc1)C(=O)N2` [PG-1, protegrin 1], in the test with A. baumannii 7226/16 (setting [3]), the “Minimal FECI, AMP + CAPB, biofilm formation” value is on record as 0.5; the “Minimal FECI, AMP + DXD, biofilm formation” value is recorded as 1.12; the “Minimal FECI, AMP + ETA, biofilm formation” value came to 1.12; the “Minimal FECI, AMP + PTS, biofilm formation” value turned out to be 0.25. For the same compound, in the test on A. baumannii 7226/16, the “MECBF partially inhibiting bacterial biofilms” value is 1/32. The “Effect of poviargolum on development of the AMP's suppression of bacterial metabolic activity” value with E. coli ML-35p [2] is on record as “significantly accelerated”.

Consider `CC[C@H](C)[C@H](NC(=O)[C@H](CCCNC(=N)N)NC(=O)[C@@H](NC(=O)[C@@H]1CCCN1C(=O)[C@@H]1CCCN1C(=O)[C@H](CCCNC(=N)N)NC(=O)[C@H](CCCNC(=N)N)NC(=O)[C@H](Cc1ccccc1)NC(=O)[C@@H]1CCCN1C(=O)[C@H](CC(C)C)NC(=O)[C@H](CCCNC(=N)N)NC(=O)[C@H](Cc1ccccc1)NC(=O)[C@@H](N)CCCNC(=N)N)[C@@H](C)CC)C(=O)N[C@@H](Cc1c[nH]cn1)C(=O)N1CCC[C@H]1C(=O)N1CCC[C@H]1C(=O)N1CCC[C@H]1C(=O)N[C@@H](Cc1ccccc1)C(=O)N[C@@H](Cc1ccc(O)cc1)C(=O)N1CCC[C@H]1C(=O)N1CCC[C@H]1C(=O)N[C@@H](Cc1ccccc1)C(=O)N[C@@H](CCCNC(=N)N)C(=O)N[C@@H](CCCNC(=N)N)C(=O)N[C@@H](Cc1ccccc1)C(=O)N[C@@H](CC(C)C)C(=O)O` [ChBac3.4] (H-RFRLPFRRPPIRIHPPPFYPPFRRFL-OH; N-terminus assumed), for which, in the test with A. baumannii 7226/16 (setting [3]), the “Minimal FECI, AMP + CAPB, biofilm formation” value was found to be 0.5; the “Minimal FECI, AMP + DXD, biofilm formation” value is 1; the “Minimal FECI, AMP + ETA, biofilm formation” value is reported as 1.12; the “Minimal FECI, AMP + PTS, biofilm formation” value is listed as 0.5. Moreover, the “Minimal FECI, AMP + PVG, biofilm formation” value with A. baumannii 7226/16 (combination with poviargolum, sub-microbicidal concentrations) came out at 1. Further, in the test with A. baumannii 7226/16, the “MECBF partially inhibiting bacterial biofilms” value was 1/16. Besides, the “Effect of poviargolum on development of the AMP's suppression of bacterial metabolic activity” value in the test on E. coli ML-35p [2] is “significantly accelerated”.

By MIC is commonly meant the lowest concentration found to suppress growth.
